Laboratory results taken from PMC5653977 (EMBO Molecular Medicine, 2017).
Structures can show the parent of a compound that is named as a salt.

Tested on: NRG1-ERBB4 signaling
Assay: Nrg1-ERBB4-PIK3R1 split TEV co-culture compound screen of the NIH Clinical Collection
Type: cell-based, human
[1] = compound screen of the NIH Clinical Collection, sheet raw data NCC-003, compounds ranked by Z-score
[2] = NIH Clinical Collection NCC-003 raw data, compounds ranked by Z-score, 'flagged' given instead of a Z-score
[3] = compounds at 10 μM, 24 h, PC12 split TEV assay cells co-cultured with Nrg1-expressing PC12 cells, analysed with cellHTS2

| Compound | Z-SCORE [1] | Z-SCORE [3] | also measured |
| --- | --- | --- | --- |
| CCN(CC)CC(=O)Nc1c(C)cccc1C [LIDOCAINE] | 1.02 | – | – |
| CC(=O)NC[C@H]1CN(c2ccc(N3CCOCC3)c(F)c2)C(=O)O1 [LINEZOLID] | – | – | Z-SCORE [2]: -1.43 |
| CN1[C@@H](CC(=O)c2ccccc2)CCC[C@H]1C[C@H](O)c1ccccc1 [LOBELINE HYDROCHLORIDE] | 0.14 | – | – |
| CN(CCCN1c2ccccc2CCc2ccccc21)CC(=O)c1ccc(Cl)cc1 [LOFEPRAMINE] | -0.53 | – | – |
| CC(Oc1c(Cl)cccc1Cl)C1=NCCN1 (centres unmarked) [LOFEXIDINE HCl] | -0.17 | – | – |
| COc1ccc(CN2CCN(C(c3ccc(F)cc3)c3ccc(F)cc3)CC2)c(OC)c1OC.Cl.Cl [LOMERIZINE DiHCl] | – | – | Z-SCORE [2]: -1.48 |
| CC(=O)CCCCn1cnc2c1c(=O)n(C)c(=O)n2C [LOMIFYLLINE] | -0.7 | – | – |
| CCOC(=O)N1CCC(=C2c3ccc(Cl)cc3CCc3cccnc32)CC1 [LORATADINE] | 0.21 | – | – |
| CCCCc1nc(Cl)c(CO)n1Cc1ccc(-c2ccccc2-c2nn[nH]n2)cc1 [LOSARTAN Potassium] | -0.12 | – | – |
| CCOC(=O)O[C@]1(C(=O)OCCl)CC[C@H]2[C@@H]3CCC4=CC(=O)C=C[C@]4(C)[C@H]3[C@@H](O)C[C@@]21C [LOTEPREDNOL ETABONATE] | 0.32 | – | – |
| CC(C(=O)O)c1ccc(CC2CCCC2=O)cc1 (centres unmarked) [LOXOPROFEN SODIUM] | 0.32 | – | – |
| CCCc1c(OCCCCc2nnn[nH]2)ccc(C(C)=O)c1O [LY 171883] | 2.04 | – | – |
| CCC[C@@H]1C[C@@H](C(=O)N[C@@H]([C@H]2O[C@H](SC)[C@H](O)[C@@H](O)[C@H]2O)[C@@H](C)O)N(C)C1 [Lincomycin hydrochloride, reference compound] | – | 0.53 | – |
| O=C1Nc2ccc(Cl)cc2C(c2ccccc2Cl)=NC1O (centres unmarked) [Lorazepam] | 0.53 | – | – |
| CC[C@H](C)C(=O)O[C@H]1C[C@@H](C)C=C2C=C[C@H](C)[C@H](CC[C@@H]3C[C@@H](O)CC(=O)O3)[C@H]21 [Lovastatin, reference compound] | – | flagged | – |
| CN1CCN(C2=Nc3ccccc3Oc3ccc(Cl)cc32)CC1 [Loxapine succinate] | – | – | Z-SCORE [2]: -1.14 |
| CC(=O)O[C@]1(C(C)=O)CC[C@H]2[C@@H]3C=C(C)C4=CC(=O)CC[C@]4(C)[C@H]3CC[C@@]21C [MEGESTROL ACETATE] | – | – | Z-SCORE [2]: -1.44 |
| C[N+]1(C)CCCC(OC(=O)C(O)(c2ccccc2)c2ccccc2)C1 (centres unmarked) [MEPENZOLATE BROMIDE, reference compound] | – | -0.58 | – |
| COc1cc(C)nc(-n2nc(C)cc2OC)n1 [MEPIRIZOLE] | 0.59 | – | – |
| Cc1cccc(C)c1NC(=O)C1CCCCN1C (centres unmarked) [MEPIVACAINE HYDROCHLORIDE] | -0.39 | – | – |
| C[C@@H](O)[C@H]1C(=O)N2C(C(=O)O)=C(S[C@@H]3CN[C@H](C(=O)N(C)C)C3)[C@H](C)[C@H]12 [MEROPENEM] | -0.25 | – | – |
| C#C[C@]1(O)CC[C@H]2[C@@H]3CCc4cc(OC)ccc4[C@H]3CC[C@@]21C [MESTRANOL] | -0.21 | – | – |
| C[C@]12CC[C@H](O)CC1=CC[C@@H]1[C@@H]2CC[C@@]2(C)[C@H]1CC[C@]2(C)O [METHYLANDROSTENEDIOL] | 0.32 | – | – |
| C[C@H]1C[C@@H]2[C@H]([C@@H](O)C[C@@]3(C)[C@H]2CC[C@]3(O)C(=O)CO)[C@@]2(C)C=CC(=O)C=C12 [METHYLPREDNISOLONE, reference compound] | – | 0.65 | – |
| Cc1ncc([N+](=O)[O-])n1CCO [METRONIDAZOLE] | -0.28 | – | – |

| Compound | Z-SCORE [1] | Z-SCORE [3] | also measured |
| --- | --- | --- | --- |
| CC(C)(C(=O)c1cccnc1)c1cccnc1 [METYRAPONE, reference compound] | – | 0.48 | – |
| Clc1ccc(COC(Cn2ccnc2)c2ccc(Cl)cc2Cl)c(Cl)c1 (centres unmarked) [MICONAZOLE NITRATE, reference compound] | – | -0.69 | – |
| Cc1ncc2n1-c1ccc(Cl)cc1C(c1ccccc1F)=NC2 [MIDAZOLAM HCl] | 0.91 | – | – |
| CC#C[C@]1(O)CC[C@H]2[C@@H]3CCC4=CC(=O)CCC4=C3[C@@H](c3ccc(N(C)C)cc3)C[C@@]21C [MIFEPRISTONE] | 0.02 | – | – |
| OCCN1C[C@H](O)[C@@H](O)[C@H](O)[C@H]1CO [MIGLITOL] | -0.33 | – | – |
| Cc1[nH]c(=O)c(C#N)cc1-c1ccncc1 [MILRINONE] | -0.04 | – | – |
| CN(C)c1ccc(O)c2c1C[C@H]1C[C@H]3[C@H](N(C)C)C(O)=C(C(N)=O)C(=O)[C@@]3(O)C(O)=C1C2=O [MINOCYCLINE HYDROCHLORIDE, reference compound] | – | -0.02 | – |
| O=C1c2c(O)ccc(O)c2C(=O)c2c(NCCNCCO)ccc(NCCNCCO)c21 [MITOXANTRONE, reference compound] | – | flagged | – |
| CC(C)(O)c1ccccc1CC[C@@H](SCC1(CC(=O)[O-])CC1)c1cccc(/C=C/c2ccc3ccc(Cl)cc3n2)c1.[Na+] [MONTELUKAST Na] | – | – | Z-SCORE [2]: -1.21 |
| CCOc1cc(N)c(Cl)cc1C(=O)NCC1CN(Cc2ccc(F)cc2)CCO1 (centres unmarked) [MOSAPRIDE CITRATE] | 0.73 | – | – |
| COc1c(N2C[C@@H]3CCCN[C@@H]3C2)c(F)cc2c(=O)c(C(=O)O)cn(C3CC3)c12 [MOXIFLOXACIN HCl] | -0.35 | – | – |
| COc1nc(C)nc(Cl)c1NC1=NCCN1.Cl [MOXONIDINE HCl] | 0.68 | – | – |
| CNCCCC12CCC(c3ccccc31)c1ccccc12.Cl [Maprotilline HCl] | 1.18 | – | – |
| CCN(CC)CCNC(=O)c1cc(Cl)c(N)cc1OC.Cl [Maxolon, reference compound] | – | -1.12 | – |
| COC(=O)Nc1nc2ccc(C(=O)c3ccccc3)cc2[nH]1 [Mebendazole, reference compound] | – | -4.63 | – |
| Cc1ccc(Cl)c(Nc2ccccc2C(=O)O)c1Cl [Meclomen, reference compound] | – | -0.25 | – |
| CC(=O)O[C@]1(C(C)=O)CC[C@H]2[C@@H]3C[C@H](C)C4=CC(=O)CC[C@]4(C)[C@H]3CC[C@@]21C [Medroxyprogesterone 17-acetate, reference compound] | – | -1.59 | – |
| CC(=O)[C@H]1CC[C@H]2[C@@H]3C[C@H](C)C4=CC(=O)CC[C@]4(C)[C@H]3[C@@H](O)C[C@]12C [Medrysone, reference compound] | – | -1.74 | – |
| Cc1cccc(Nc2ccccc2C(=O)O)c1C [Mefenamic Acid, reference compound] | – | 0.34 | – |
| OC(c1cc(C(F)(F)F)nc2c(C(F)(F)F)cccc12)C1CCCCN1 (centres unmarked) [Mefloquine hydrochloride, reference compound] | – | flagged | – |
| Cc1cnc(NC(=O)C2=C(O)c3ccccc3S(=O)(=O)N2C)s1 [Meloxicam, reference compound] | – | 0.24 | – |
| CC12CC3CC(C)(C1)CC(N)(C3)C2 [Memantine hydrochloride, reference compound] | – | 0.5 | Z-SCORE [2]: -1.15 |
| S=c1[nH]cnc2nc[nH]c12 [Mercaptopurine, reference compound] | – | 0 | – |
| O=S(=O)(O)CCS [Mesna, reference compound] | – | 0.04 | – |
| CN1CCCCC1CCN1c2ccccc2Sc2ccc([S+](C)[O-])cc21 (centres unmarked) [Mesoridazine] | -0.53 | – | – |

| Compound | Z-SCORE [1] | Z-SCORE [3] | also measured |
| --- | --- | --- | --- |
| C[C@]12CCC(=O)C[C@@H]1CC[C@@H]1[C@@H]2CC[C@@]2(C)[C@H]1CC[C@]2(C)O [Mestanolone] | 1.19 | – | – |
| CN(C)C(=O)Oc1ccc[n+](C)c1 [Mestinon, reference compound] | – | -0.37 | – |
| CC(C)NCC(O)c1cc(O)cc(O)c1 (centres unmarked) [Metaproterenol, reference compound] | – | -0.11 | – |
| CC(=O)/N=c1/sc(S(N)(=O)=O)nn1C [Methazolamide, reference compound] | – | 0.38 | – |
| Cn1cc[nH]c1=S [Methimazole, reference compound] | – | 3 | – |
| COc1ccccc1OCC(O)COC(N)=O (centres unmarked) [Methocarbamol, reference compound] | – | 0.65 | – |
| COc1c2occc2cc2ccc(=O)oc12 [Methoxsalen, reference compound] | – | 0.16 | – |
| C[C@](N)(Cc1ccc(O)c(O)c1)C(=O)O [Methyldopa, reference compound] | – | 0.63 | – |
| C[C@]12CCC(=O)C=C1CC[C@@H]1[C@@H]2CC[C@@]2(C)[C@H]1CC[C@]2(C)O [Methyltestosterone] | -0.41 | – | – |
| CC1CCN(CCCC(=O)c2ccc(F)cc2)CC1 [Metylperon] | 0.36 | – | – |
| Cc1cccc(C)c1OCC(C)N (centres unmarked) [Mexitil, reference compound] | – | 1.1 | – |
| Cc1onc(-c2ccccc2)c1C(=O)N[C@@H]1C(=O)N2[C@@H]1SC(C)(C)[C@@H]2C(=O)[O-].O.[Na+] [Micropenin, reference compound] | – | 0.25 | – |
| CCN(CC)C(=O)C1(c2ccccc2)CC1CN (centres unmarked) [Milnacipran] | 0.97 | – | – |
| Nc1cc(N2CCCCC2)nc(N)[n+]1[O-] [Minoxidil, reference compound] | – | 0.25 | – |
| CC(=O)OCC[N+](C)(C)C [Miochol, reference compound] | – | 0.45 | – |
| CCc1c(C)[nH]c2c1C(=O)C(CN1CCOCC1)CC2 (centres unmarked) [Moban, reference compound] | – | -0.44 | – |
| NC(=O)C[S+]([O-])C(c1ccccc1)c1ccccc1 (centres unmarked) [Modafinil] | 0.43 | – | – |
| C/C(=C\C(=O)OCCCCCCCCC(=O)O)C[C@@H]1OC[C@H](C[C@@H]2O[C@H]2[C@@H](C)[C@H](C)O)[C@@H](O)[C@H]1O [Mupirocin, reference compound] | – | 0.71 | – |
| COc1ccc2cc(CCC(C)=O)ccc2c1 [NABUMETONE, reference compound] | – | 1.61 | – |
| CC(C)(C)NCC(O)COc1cccc2c1CC(O)C(O)C2 (centres unmarked) [NADOLOL, reference compound] | – | 0.1 | – |
| COc1ccccc1N1CCN(CC(O)COc2cccc3ccccc23)CC1 (centres unmarked) [NAFTOPIDIL] | 0.24 | – | – |
| C=CCN1CC[C@]23c4c5ccc(O)c4O[C@H]2C(=O)CC[C@@]3(O)[C@H]1C5 [NALOXONE HYDROCHLORIDE, reference compound] | – | -0.39 | – |
| O=C1CC[C@@]2(O)[C@H]3Cc4ccc(O)c5c4[C@@]2(CCN3CC2CC2)[C@H]1O5 [NALTREXONE HYDROCHLORIDE, reference compound] | – | 0.59 | – |
